This passage reports activity change, negative = cytotoxicity and AC50 results from PubChem BioAssay AID743136 (Broad Institute, 2013).

Each structure is given as a SMILES string. Where “and” joins values, the source holds several entries; their conditions need not be identical. Identical values can stand only once. Calls of active or inactive are those of the source.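 How the source made its calls: active means valid fitted curve with falling viability signal and AC50 at most twice the top tested concentration; inconclusive means flat curve with 30 to 70% signal loss, or poor fit; inactive means the rest, including opposite-direction effects.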

By AC50 is commonly meant the midpoint of the concentration-response curve, whichever way the signal moves.

Tested on in one experiment: not listed separately
As to the kind of experiment: HepG2 cell cytotoxicity, dose response, cytotoxicity control, ATP luminescence, dry powder, Set2, 50 µM top (AID 743136). Particulars: HepG2 viability, CellTiter-Glo ATP luminescence, 72 h; at 1.2 µM (top of the series). (In general: In ATP-based viability assays light output follows the ATP content of the culture.)
For the compound `Cc1c(C(=O)O)sc2nc(/C=C/c3ccc(O)cn3)[nH]c(=O)c12`, the activity change, negative = cytotoxicity was -0.612% (inactive).

Staying with this experiment, now noted: HepG2 viability, CellTiter-Glo ATP luminescence, 72 h; at 12 µM (top of the series).
Take `Cc1c(C(=O)O)sc2nc(/C=C/c3ccc4[nH]ccc4n3)[nH]c(=O)c12`: the activity change, negative = cytotoxicity is 2.05% (inactive).

The experiment is the same for the next values; noted with them: HepG2 viability, CellTiter-Glo ATP luminescence, 72 h; at 46 µM (top of the series).
Regarding `Cc1c(C(=O)O)sc2nc(/C=C/c3cccc(O)c3)[nH]c(=O)c12`, the activity change, negative = cytotoxicity is 1.28% (inactive).

The experiment is the same for the next values; noted with them: HepG2 viability, CellTiter-Glo ATP luminescence, 72 h; at 50 µM (top of the series).
On to `Cc1c(C(=O)O)sc2nc(/C=C/c3cccc(C(=O)O)c3)[nH]c(=O)c12`, for which the activity change, negative = cytotoxicity is -5.9% (inactive). With `Cc1c(C(=O)O)sc2nc(/C=C/c3cccc([N+](=O)[O-])c3)[nH]c(=O)c12`, the activity change, negative = cytotoxicity is -30.8% (inactive). On the same count and under the same terms, next, `Cc1c(C(=O)O)sc2nc(/C=C/c3ccnc4ccccc34)[nH]c(=O)c12`: -5.63% (inactive). In the case of `Cc1c(C(=O)O)sc2nc(/C=C/c3ccc4[nH]ccc4c3)[nH]c(=O)c12`, the activity change, negative = cytotoxicity is 1.56% (inactive). Same read-out and setting: next, `Cc1c(C(=O)O)sc2nc(/C=C/c3ccccc3O)[nH]c(=O)c12`: -7.61% (inactive). As to `Cc1c(C(=O)O)sc2nc(/C=C/c3cccc(C(N)=O)c3)[nH]c(=O)c12`, the activity change, negative = cytotoxicity was -16.7% (inactive). In the case of `Cc1c(C(=O)O)sc2nc(/C=C/c3ccc4cc[nH]c4c3)[nH]c(=O)c12`, the activity change, negative = cytotoxicity is -21% (inactive). Still for that read-out and setting: next, `Cc1c(C(=O)O)sc2nc(/C=C/c3ccccc3)[nH]c(=O)c12`: -17.2% (inactive).

Regarding `Cc1c(C(=O)O)sc2nc(/C=C/c3cccc(F)c3)[nH]c(=O)c12`, the activity change, negative = cytotoxicity is -10.3% (inactive). On the same count and under the same terms, the value for `Cc1c(C(=O)O)sc2nc(/C=C/c3cc4ccccc4cn3)[nH]c(=O)c12` was -5.12% (inactive); that for `Cc1c(C(=O)O)sc2nc(CCc3cccc(O)c3)[nH]c(=O)c12` was -14.1% (inactive). Same read-out and setting: next, `COc1cccc(/C=C/c2nc3sc(C(=O)O)c(C)c3c(=O)[nH]2)c1`: -15.1% (inactive); `Cc1c(C(=O)O)sc2nc(/C=C/C3CC3)[nH]c(=O)c12`: -1.5% (inactive).

Consider `Cc1c(C(=O)O)sc2nc(/C=C/c3ccncc3)[nH]c(=O)c12`, for which the activity change, negative = cytotoxicity is -2.2% (inactive). Turning to `Cc1c(C(=O)O)sc2nc(/C=C/c3cccc(C(F)(F)F)c3)[nH]c(=O)c12`, the activity change, negative = cytotoxicity was -10.9% (inactive).

For the compound `Cc1c(C(=O)O)sc2nc(/C=C/c3ccc(N)nc3)[nH]c(=O)c12`, the activity change, negative = cytotoxicity is -9.16% (inactive). Turning to `Cc1c(C(=O)O)sc2nc(/C=C/c3cccnc3)[nH]c(=O)c12`, the activity change, negative = cytotoxicity is -15.4% (inactive). As for `Cc1c(C(=O)O)sc2nc(/C=C/c3cccc(N)c3)[nH]c(=O)c12`, the activity change, negative = cytotoxicity is -6.41% (inactive). With `Cc1c(C(=O)O)sc2nc(/C=C/c3ccc4ccccc4c3)[nH]c(=O)c12`, the activity change, negative = cytotoxicity was -8.19% (inactive). With `Cc1c(C(=O)O)sc2nc(/C=C/C=C/c3ccccc3)[nH]c(=O)c12`, the activity change, negative = cytotoxicity is 20.1% (inactive). Same read-out and setting: next, `Cc1c(C(=O)O)sc2nc(/C=C/c3cnc4ccccc4c3)[nH]c(=O)c12`: -18.5% (inactive); `Cc1c(C(=O)O)sc2nc(/C=C/c3ccccn3)[nH]c(=O)c12`: -16.2% (inactive).

For the compound `Cc1c(C(=O)O)sc2nc(/C=C/c3cccc(N4CCOCC4)n3)[nH]c(=O)c12`, the activity change, negative = cytotoxicity is -4.25% (inactive). The same measure, in the same setting: the value for `Cc1c(C(=O)O)sc2nc(/C=C/c3cccc(=O)[nH]3)[nH]c(=O)c12` was -1.32% (inactive). `Cc1c(C(=O)O)sc2nc(/C=C/c3cccc(O)c3)[nH]c(=O)c12`: the activity change, negative = cytotoxicity was -10.4% (inactive) and -7.42% (inactive). The same measure, in the same setting: next, `Cc1c(C(=O)O)sc2nc(/C=C/c3cccc(N4CCNCC4)c3)[nH]c(=O)c12`: -21% (inactive).

Another experiment concerns HepG2 viability, CellTiter-Glo ATP luminescence, 72 h. The experiment is described as above.
Conditions: not given
Turning to `Cc1c(C(=O)O)sc2nc(/C=C/c3cccc(OC(F)(F)F)c3)[nH]c(=O)c12`, the AC50 was > 100 µM (inactive). Still for that read-out and setting: next, `Cc1c(C(=O)O)sc2nc(/C=C/c3cccnc3N)[nH]c(=O)c12`: > 24 µM (inactive).
